Assay results taken from patent publication US10865216B2, “Tricyclic Gyrase inhibitors” (MERCK SHARP & DOHME CORP., priority 2012, dated 2020).
In brackets after ≈: the same amount, converted by molar mass.

Legend:
S. aureus ATCC 13709 = assay: MIC, S. aureus ATCC 13709; assay type: cell-based; details: Alamar Blue read after overnight incubation at 35° C.; for MIC Sa: S. aureus; for MIC: Staphylococcus aureus, ATCC13709, S. aureus, read-out: MIC Sa
E. coli ATCC 25922 = assay: MIC, E. coli ATCC 25922; assay type: cell-based; details: Alamar Blue read after overnight incubation at 35° C.; for MIC Ec: E. coli; for MIC: Escherichia coli, ATCC25922, E. coli, read-out: MIC Ec

Row | SMILES | MIC Sa (S. aureus ATCC 13709) | MIC Ec (E. coli ATCC 25922) | MIC (S. aureus ATCC 13709) | MIC (E. coli ATCC 25922)
1 | CNc1cccc2c1[nH]c1nc(Sc3cnc4ccc[n+]([O-])c4c3)nc(N3CC4C(N)C4C3)c12 (stereo not drawn) [Compound 1.71] | ≤0.5 µg/mL | ≤0.5 µg/mL |  | 
2 | CNc1ccc(C)c2c1[nH]c1nc(Sc3cnc4ccc[n+]([O-])c4c3)nc(N3CC(N)C4(CC4)C3)c12 (stereo not drawn) [Compound 1.72] |  |  | ≤ 0.5 µg/mL | 1 µg/mL (≈ 2.01 µM)
3 | CNc1ccc(C)c2c1[nH]c1nc(Sc3cnc4ccc[n+]([O-])c4c3)nc(N3CC4C(N)C4C3)c12 (stereo not drawn) [Compound 1.73] |  |  | ≤ 0.5 µg/mL | 8 µg/mL (≈ 16.5 µM)
4 | CNc1cccc2c1[nH]c1nc(Sc3ccc4ccc(C(=O)O)nc4c3)nc(N3CC4C(N)C4C3)c12 (stereo not drawn) [Compound 1.74] |  |  | 4 µg/mL (≈ 8.04 µM) | > 64 µg/mL
5 | COc1cccc2c1[nH]c1nc(Sc3cnc4cccnc4c3)nc(N3CC4C(N)C4C3)c12 (stereo not drawn) [Compound 1.75] |  |  | ≤ 0.5 µg/mL | > 64 µg/mL
6 | COc1cccc2c1[nH]c1nc(Sc3cnc4nccnc4c3)nc(N3CC4C(N)C4C3)c12 (stereo not drawn) [Compound 1.76] |  |  | 1 µg/mL (≈ 2.19 µM) | > 64 µg/mL
7 | COc1cccc2c1[nH]c1nc(Sc3cnc4ccc[n+]([O-])c4c3)nc(N3CC(N)C3)c12 [Compound 1.77] |  |  | 2 µg/mL (≈ 4.49 µM) | > 64 µg/mL
8 | COc1cccc2c1[nH]c1nc(Sc3cnc4ccc[n+]([O-])c4c3)nc(N3CC[C@@H](N)C3)c12 [Compound 1.78] |  |  | ≤ 0.5 µg/mL | 64 µg/mL (≈ 139 µM)
9 | CNNc1cc(F)cc2c1[nH]c1nc(Oc3cnc(C)nc3)nc(N3CC4C(N)C4C3)c12 (stereo not drawn) [Compound 2.1] | ≤0.5 µg/mL | >16 µg/mL |  | 
10 | CCc1cc(F)cc2c1[nH]c1nc(Oc3cncnc3)nc(N3CC4C(N)C4C3)c12 (stereo not drawn) [Compound 2.2] | 2 µg/mL (≈ 4.93 µM) | 4 µg/mL (≈ 9.87 µM) |  | 
11 | CCc1cc(F)cc2c1[nH]c1nc(Oc3cnc(C)nc3)nc(N3CC(N)C4(CC4)C3)c12 (stereo not drawn) [Compound 2.3] | 1 µg/mL (≈ 2.31 µM) | 16 µg/mL (≈ 36.9 µM) |  | 
12 | CCc1cc(F)cc2c1[nH]c1nc(Oc3cnc(C)nc3)nc(N3CC4CC(N)C4C3)c12 (stereo not drawn) [Compound 2.4] | ≤0.5 µg/mL | 1 µg/mL (≈ 2.31 µM) |  | 
13 | CCc1cc(F)cc2c1[nH]c1nc(Oc3cncnc3)nc(N3CC4CC(N)C4C3)c12 (stereo not drawn) [Compound 2.5] | ≤0.5 µg/mL | 2 µg/mL (≈ 4.77 µM) |  | 
14 | Cc1cc(F)cc2c1[nH]c1nc(Oc3cncnc3)nc(N3CC4C(N)C4C3)c12 (stereo not drawn) [Compound 2.7] | 4 µg/mL (≈ 10.2 µM) | >16 µg/mL |  | 
15 | Nc1cccc2c1[nH]c1nc(Oc3cnc4cccnc4c3)nc(N3CC4C(N)C4C3)c12 (stereo not drawn) [Compound 2.8] | 16 µg/mL (≈ 37.7 µM) | >64 µg/mL |  | 
16 | Cc1ncc(Oc2nc(N3CC(N)C4(CC4)C3)c3c(n2)[nH]c2c(N)cc(F)cc23)cn1 (stereo not drawn) [Compound 2.9] | 16 µg/mL (≈ 38.1 µM) | 16 µg/mL (≈ 38.1 µM) |  | 
17 | COc1cccc2c1[nH]c1nc(Oc3cncnc3)nc(N3CC[C@@H](N)C3)c12 [Compound 2.10] | 2 µg/mL (≈ 5.3 µM) | 32 µg/mL (≈ 84.8 µM) |  | 
18 | COc1cccc2c1[nH]c1nc(Oc3cncnc3)nc(N3CCC(NC(C)=O)C3)c12 (stereo not drawn) [Compound 2.11] | 4 µg/mL (≈ 9.54 µM) | >64 µg/mL |  | 
19 | COc1cccc2c1[nH]c1nc(Oc3cccc(C#N)c3)nc(N3CC4C(N)C4C3)c12 (stereo not drawn) [Compound 2.12] | 16 µg/mL (≈ 38.8 µM) | >64 µg/mL |  | 
20 | COc1cccc2c1[nH]c1nc(Oc3cncnc3)nc(N3CC4C(N)C4C3)c12 (stereo not drawn) [Compound 2.13] | 2 µg/mL (≈ 5.14 µM) | 64 µg/mL (≈ 164 µM) |  | 
21 | COc1cccc2c1[nH]c1nc(Oc3cnc4cccnc4c3)nc(N3CC4C(N)C4C3)c12 (stereo not drawn) [Compound 2.14] | 1 µg/mL (≈ 2.28 µM) | >64 µg/mL |  | 
22 | COc1cccc2c1[nH]c1nc(Oc3cccc(C#N)c3)nc(N3CC4C(N)C4C3)c12 (stereo not drawn) [Compound 2.15] | 1 µg/mL (≈ 2.42 µM) | >32 µg/mL |  | 
23 | Cc1ncc(Oc2nc(N3CC4CC3C[C@H]4N)c3c(n2)[nH]c2c(N)cc(F)cc23)cn1 (stereo partly drawn) [Compound 2.16] |  |  | 8 µg/mL (≈ 19 µM) | 16 µg/mL (≈ 38.1 µM)

Row | SMILES | MIC Sa (S. aureus ATCC 13709) | MIC Ec (E. coli ATCC 25922) | MIC (S. aureus ATCC 13709) | MIC (E. coli ATCC 25922)
24 | CNc1cccc2c1[nH]c1nc(Oc3cncnc3)cc(N3CC4CC4(N)C3)c12 (stereo not drawn) [Compound 3.1] |  |  | 1 µg/mL (≈ 2.58 µM) | 4 µg/mL (≈ 10.3 µM)
25 | CNc1cccc2c1[nH]c1nc(Oc3cncc(C#N)c3)cc(N3CC[C@@H](N)C3)c12 [Compound 3.3] |  |  | 0.5 µg/mL (≈ 1.25 µM) | 1 µg/mL (≈ 2.5 µM)
26 | CNc1cccc2c1[nH]c1nc(Oc3cncnc3)cc(N3CC[C@@H](N)C3)c12 [Compound 3.4] |  |  | 0.5 µg/mL (≈ 1.33 µM) | ≤ 0.5 µg/mL
27 | CNc1cccc2c1[nH]c1nc(Oc3cnc(C)nc3)cc(N3CC[C@@H](N)C3)c12 [Compound 3.5] |  |  | 0.25 µg/mL (≈ 0.642 µM) | ≤ 0.5 µg/mL
28 | CNc1cccc2c1[nH]c1nc(Oc3cncc(F)c3)cc(N3CC[C@@H](N)C3)c12 [Compound 3.6] |  |  | 0.5 µg/mL (≈ 1.27 µM) | 1 µg/mL (≈ 2.55 µM)
29 | CNc1cccc2c1[nH]c1nc(Oc3cncc(F)c3)cc(N3CC4CNC4C3)c12 (stereo not drawn) [Compound 3.7] |  |  | 1 µg/mL (≈ 2.47 µM) | 4 µg/mL (≈ 9.89 µM)
30 | CNc1cccc2c1[nH]c1nc(Oc3cncnc3)cc(N3CC(N)C(O)C3)c12 (stereo not drawn) [Compound 3.8] |  |  | 16 µg/mL (≈ 40.9 µM) | > 64 µg/mL
31 | CNc1cccc2c1[nH]c1nc(Oc3cncnc3)cc(-c3cn[nH]c3)c12 [Compound 3.9] |  |  | 2 µg/mL (≈ 5.6 µM) | 32 µg/mL (≈ 89.5 µM)
32 | CNc1cccc2c1[nH]c1nc(Oc3cnc(C)nc3)cc(N3CC[C@@H](NCCC#N)C3)c12 [Compound 3.10] |  |  | 32 µg/mL (≈ 72.3 µM) | > 64 µg/mL
33 | CNc1cccc2c1[nH]c1nc(Oc3cnc(C)nc3)cc(N3CC4C(C3)C4NCCC#N)c12 (stereo not drawn) [Compound 3.11] |  |  | ≤ 0.5 µg/mL | 2 µg/mL (≈ 4.4 µM)
34 | CNc1cccc2c1[nH]c1nc(Oc3cncnc3)cc(N3C[C@H](NCC4CC4)C4(CC4)C3)c12 [Compound 3.12] |  |  | 1 µg/mL (≈ 2.2 µM) | 8 µg/mL (≈ 17.6 µM)
35 | CNc1cccc2c1[nH]c1nc(Oc3cncnc3)cc(N3CC4C(C3)C4NCC3CC3)c12 (stereo not drawn) [Compound 3.13] |  |  | ≤ 0.5 µg/mL | 1 µg/mL (≈ 2.26 µM)
36 | CNc1cccc2c1[nH]c1nc(Oc3cnc(C)nc3)cc(N3CC4C(C3)C4NCC3CC3)c12 (stereo not drawn) [Compound 3.14] |  |  | ≤ 0.5 µg/mL | 2 µg/mL (≈ 4.39 µM)
37 | CNc1cccc2c1[nH]c1nc(Oc3cncnc3)cc(N3CC4CCC(N)C4C3)c12 (stereo not drawn) [Compound 3.15] |  |  | 1 µg/mL (≈ 2.41 µM) | 8 µg/mL (≈ 19.3 µM)
38 | CNc1cccc2c1[nH]c1nc(Oc3cncnc3)cc(N3CCC[C@@H](N)C3)c12 [Compound 3.16] |  |  | 4 µg/mL (≈ 10.3 µM) | 4 µg/mL (≈ 10.3 µM)
39 | CNc1cccc2c1[nH]c1nc(Oc3cncnc3)cc(N3CCC(C(N)=O)C3)c12 (stereo not drawn) [Compound 3.17] |  |  | 2 µg/mL (≈ 4.96 µM) | > 16 µg/mL
40 | CNc1cccc2c1[nH]c1nc(Oc3cncnc3)cc(N3CC4C(C3)C4NC(=O)CN)c12 (stereo not drawn) [Compound 3.18] |  |  | 4 µg/mL (≈ 9 µM) | > 16 µg/mL
41 | CNc1cccc2c1[nH]c1nc(Oc3cncc(C(N)=O)c3)cc(N3CC4C(N)C4C3)c12 (stereo not drawn) [Compound 3.19] |  |  | 8 µg/mL (≈ 18.6 µM) | 32 µg/mL (≈ 74.5 µM)
42 | CNc1cccc2c1[nH]c1nc(Oc3cncc(C(=O)O)c3)cc(N3CC4C(N)C4C3)c12 (stereo not drawn) [Compound 3.20] |  |  | > 8 µg/mL | > 8 µg/mL
43 | CNc1cccc2c1[nH]c1nc(Oc3ccc(C(=O)OC)nc3)cc(N3CC4C(N)C4C3)c12 (stereo not drawn) [Compound 3.21] |  |  | ≤ 0.5 µg/mL | 1 µg/mL (≈ 2.25 µM)
44 | CNc1cccc2c1[nH]c1nc(Oc3ccc(C(=O)O)nc3)cc(N3CC4C(N)C4C3)c12 (stereo not drawn) [Compound 3.22] |  |  | 16 µg/mL (≈ 37.2 µM) | 64 µg/mL (≈ 149 µM)
45 | CNc1cccc2c1[nH]c1nc(Oc3cnc4ccoc4c3)cc(N3CC4C(N)C4C3)c12 (stereo not drawn) [Compound 3.23] |  |  | ≤ 0.5 µg/mL | 2 µg/mL (≈ 4.69 µM)
